According to US20260243779A1, “METHOD FOR EVALUATING RECEPTOR-TYPE TYROSINE KINASE ACTIVITY” (The University of Osaka, priority 2023, published 2026):

What was measured:
EGFR [1] = target: T1, EGFR (Homo sapiens, UniProt P00533); test: EGFR immunostaining, subcellular localization of the EGFR; format: cell-based; conditions: EGF not necessary
EGFR [2] = target: T1, EGFR; test: Drug evaluation / FDA-approved drug library screening using MSDδt=500 ms ratio before and after EGF addition, CHO cells expressing EGFR-GFP; conditions: for MSDδt=500 ms ratio compared with the control: compound addition changed MSDδt=500 ms in an EGF-independent manner; for hit in primary screening (MSDδt=500 ms ratio equal to or greater than threshold = control average + 3×standard deviation): FDA-approved drug library (1134 drugs), EGF 60 nM, among the 53 hit compounds
ErbB3 = ErbB3 (Homo sapiens, UniProt P21860); test: Single-molecule imaging of CHO cell expressing ErbB3-GFP, MSD ratio HRG-treated/untreated; format: cell-based; conditions: drug 0.1 to 10,000 nM; HRG saturated (>30 nM); concentration-dependent; FIG. 8A
Chain of ErbB3 (P21860 20-1342): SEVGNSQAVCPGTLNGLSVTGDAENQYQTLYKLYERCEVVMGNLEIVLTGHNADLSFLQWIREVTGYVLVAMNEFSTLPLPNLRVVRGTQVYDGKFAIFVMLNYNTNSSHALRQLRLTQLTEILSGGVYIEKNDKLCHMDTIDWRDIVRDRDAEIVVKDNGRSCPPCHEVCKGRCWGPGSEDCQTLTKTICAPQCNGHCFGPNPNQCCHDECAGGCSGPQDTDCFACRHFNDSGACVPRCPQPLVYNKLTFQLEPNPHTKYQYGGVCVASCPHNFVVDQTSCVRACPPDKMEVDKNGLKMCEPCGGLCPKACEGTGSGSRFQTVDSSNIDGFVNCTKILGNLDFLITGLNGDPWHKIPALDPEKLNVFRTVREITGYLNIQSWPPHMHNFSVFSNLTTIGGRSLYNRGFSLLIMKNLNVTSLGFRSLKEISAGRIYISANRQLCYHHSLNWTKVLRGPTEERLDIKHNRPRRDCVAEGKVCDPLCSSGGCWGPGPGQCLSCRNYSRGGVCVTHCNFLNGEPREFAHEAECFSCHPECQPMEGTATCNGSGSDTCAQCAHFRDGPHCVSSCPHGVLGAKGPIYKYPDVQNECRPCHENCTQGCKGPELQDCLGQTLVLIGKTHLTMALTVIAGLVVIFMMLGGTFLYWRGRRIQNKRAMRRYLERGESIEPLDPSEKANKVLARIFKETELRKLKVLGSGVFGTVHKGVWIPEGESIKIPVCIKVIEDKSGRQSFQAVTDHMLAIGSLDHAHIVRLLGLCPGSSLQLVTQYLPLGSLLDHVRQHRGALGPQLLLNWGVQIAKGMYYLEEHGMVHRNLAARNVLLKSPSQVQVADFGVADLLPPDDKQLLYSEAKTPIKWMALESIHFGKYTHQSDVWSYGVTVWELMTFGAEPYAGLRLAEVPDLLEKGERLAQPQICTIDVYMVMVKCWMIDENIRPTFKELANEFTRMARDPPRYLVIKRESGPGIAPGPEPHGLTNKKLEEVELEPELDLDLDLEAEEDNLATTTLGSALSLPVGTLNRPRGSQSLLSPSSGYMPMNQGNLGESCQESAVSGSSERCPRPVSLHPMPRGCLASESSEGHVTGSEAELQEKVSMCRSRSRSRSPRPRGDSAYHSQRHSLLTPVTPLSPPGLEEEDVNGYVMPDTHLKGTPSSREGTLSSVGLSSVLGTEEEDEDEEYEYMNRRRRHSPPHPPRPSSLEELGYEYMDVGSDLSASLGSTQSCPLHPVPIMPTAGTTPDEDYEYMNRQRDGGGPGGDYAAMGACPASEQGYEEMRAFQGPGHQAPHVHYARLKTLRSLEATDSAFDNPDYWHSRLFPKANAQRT
Experimental: FIGS. 8A and 8B show the relationship between the drug (Sapitinib or Afaitinib) concentration and the receptor diffusion dynamics (MSDδt=500 ms ratio) when the HRG concentration is saturated (>30 nM); here, FIG. 8A is the result for Sapitinib and FIG. 8B is the result for Afaitinib. […] Therefore, it was confirmed that the effect of the phosphorylation inhibitor can be estimated from the change in the molecular dynamics by measuring the diffusion dynamics and calculating the ratio of the MSD values, even for the RTK receptor other than the EGFR.

T1 sequence (P00533 25-1210): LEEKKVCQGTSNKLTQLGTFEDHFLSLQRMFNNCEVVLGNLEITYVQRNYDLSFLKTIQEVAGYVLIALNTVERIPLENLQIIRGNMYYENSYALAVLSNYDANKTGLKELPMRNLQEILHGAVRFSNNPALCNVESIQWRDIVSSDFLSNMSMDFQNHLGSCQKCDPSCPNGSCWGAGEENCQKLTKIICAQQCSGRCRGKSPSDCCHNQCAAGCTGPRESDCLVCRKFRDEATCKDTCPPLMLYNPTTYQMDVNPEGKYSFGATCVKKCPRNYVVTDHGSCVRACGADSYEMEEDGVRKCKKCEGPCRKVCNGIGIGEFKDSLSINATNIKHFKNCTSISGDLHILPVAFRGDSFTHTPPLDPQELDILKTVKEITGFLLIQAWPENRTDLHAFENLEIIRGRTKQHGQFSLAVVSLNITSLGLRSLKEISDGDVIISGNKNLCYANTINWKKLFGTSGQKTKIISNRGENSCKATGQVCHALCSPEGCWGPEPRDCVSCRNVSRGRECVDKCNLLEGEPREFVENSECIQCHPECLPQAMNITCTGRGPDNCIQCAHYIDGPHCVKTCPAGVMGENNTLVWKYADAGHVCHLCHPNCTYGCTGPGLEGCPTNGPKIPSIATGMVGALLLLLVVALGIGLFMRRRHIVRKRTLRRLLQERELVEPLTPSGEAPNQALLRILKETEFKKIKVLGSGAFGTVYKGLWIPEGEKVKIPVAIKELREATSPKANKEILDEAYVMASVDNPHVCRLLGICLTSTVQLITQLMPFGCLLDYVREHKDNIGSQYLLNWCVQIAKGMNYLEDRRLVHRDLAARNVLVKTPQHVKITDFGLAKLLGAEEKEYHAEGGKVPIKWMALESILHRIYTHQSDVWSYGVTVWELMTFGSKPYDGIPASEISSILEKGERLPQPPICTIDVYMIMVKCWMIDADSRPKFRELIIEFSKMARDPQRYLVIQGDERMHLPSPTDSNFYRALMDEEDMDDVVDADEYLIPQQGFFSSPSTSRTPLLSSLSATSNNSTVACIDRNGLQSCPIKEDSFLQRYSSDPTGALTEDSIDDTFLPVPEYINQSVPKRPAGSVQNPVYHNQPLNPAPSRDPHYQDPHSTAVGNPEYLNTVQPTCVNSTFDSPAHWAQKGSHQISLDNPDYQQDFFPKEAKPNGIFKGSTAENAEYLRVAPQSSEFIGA

effect on the subcellular localization of the EGFR (EGFR [1]) | MSDδt=500 ms ratio compared with the control (EGFR [2]) | SMILES | hit in primary screening (MSDδt=500 ms ratio equal to or greater than threshold = control average + 3×standard deviation) (EGFR [2]) | effect on reduction of receptor mobility (MSDδt=500 ms ratio) by HRG, ErbB3 (ErbB3)
EGFR was incorporated into the cell | significantly different from the control | Oc1c(Br)cc(Br)c2cccnc12 [Broxyquinoline] | – | –
– | – | COc1cccc2c1C(=O)c1c(O)c3c(c(O)c1C2=O)C[C@@](O)(C(C)=O)C[C@@H]3O[C@H]1C[C@H](N)[C@H](O)[C@H](C)O1 [Daunorubicin] | included | –
EGFR was incorporated into the cell | significantly different from the control | Cc1cn(-c2cc(NC(=O)c3ccc(C)c(Nc4nccc(-c5cccnc5)n4)c3)cc(C(F)(F)F)c2)cn1 [Nilotinib] | – | –
– | – | C#Cc1cccc(Nc2ncnc3cc(OCCOC)c(OCCO)cc23)c1 [OSI-420] | included | –
– | – | CNC(=O)CN1CCC(Oc2cc3c(Nc4cccc(Cl)c4F)ncnc3cc2OC)CC1 [Sapitinib] | – | inhibited the reduction of the receptor mobility

SMILES | effect on the subcellular localization of the EGFR (EGFR [1]) | MSDδt=500 ms ratio compared with the control (EGFR [2]) | hit in primary screening (MSDδt=500 ms ratio equal to or greater than threshold = control average + 3×standard deviation) (EGFR [2]) | effect on reduction of receptor mobility (MSDδt=500 ms ratio) by HRG, ErbB3 (ErbB3)
O=C(OCC(O)CO)c1ccccc1Nc1ccnc2cc(Cl)ccc12 (stereo not drawn) [Glafenine] | EGFR was incorporated into the cell | significantly different from the control | – | –
